# From article PMC7704495 (Pharmacological Reports, 2020)
# How the values were obtained:
# [1] = biological target: T1, CYP1A2 (Homo sapiens, UniProt P05177); assay: CYP1A2 inhibition, caffeine 3-N-demethylation in pooled human liver microsomes; type: in vitro ADME; settings: for type of inhibition: Lineweaver–Burk; for Ki: caffeine 3-N-demethylation
# T1 construct: purchased Corning (Woburn, USA); host or cells: baculovirus-infected insect cells
# T1 sequence (P05177 1-516): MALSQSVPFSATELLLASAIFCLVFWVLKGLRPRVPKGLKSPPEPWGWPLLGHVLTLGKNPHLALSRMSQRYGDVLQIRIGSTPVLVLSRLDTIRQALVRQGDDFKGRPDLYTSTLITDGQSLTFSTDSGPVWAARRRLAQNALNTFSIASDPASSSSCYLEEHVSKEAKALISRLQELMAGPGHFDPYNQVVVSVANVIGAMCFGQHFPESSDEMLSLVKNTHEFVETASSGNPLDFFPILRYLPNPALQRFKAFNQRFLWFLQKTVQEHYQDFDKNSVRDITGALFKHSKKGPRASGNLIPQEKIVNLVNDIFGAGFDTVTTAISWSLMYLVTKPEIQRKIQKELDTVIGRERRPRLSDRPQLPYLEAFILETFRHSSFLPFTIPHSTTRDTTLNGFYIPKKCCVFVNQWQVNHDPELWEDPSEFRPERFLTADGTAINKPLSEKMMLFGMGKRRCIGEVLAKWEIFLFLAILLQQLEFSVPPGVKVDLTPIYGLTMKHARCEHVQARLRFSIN
# Protocol: (§1) The following probe reactions were applied, according to the methods previously described: caffeine 3-N-demethylation for CYP1A2 (caffeine 200, 400 and 800 µM), diclofenac 4′-hydroxylation for CYP2C9 (diclofenac 5, 10, 25 µM), perazine N-demethylation for CYP2C19 (perazine 50, 100, 200 µM), bufuralol 1′-hydroxylation for CYP2D6 (bufuralol 10, 25, 50 µM), and testosterone 6β-hydroxylation for CYP3A4 (50, 100 and 200 µM). Incubation systems for CYP2C9, 2C19 and 3A4 contained: 50 mM TRIS/KCL buffer (pH = 7.4), NADPH generating system (1 mM NADP, 5 mM glucose 6-phosphate, 1.7 U/ml glucose 6-phosphate dehydrogenase, 1 mM EDTA and 3 mM MgCl2). Incubation mixture for CYP1A2 included: 0.15 M phosphate buffer (pH = 7.4) and 1 mM NADPH, and for CYP2D6: 0.1 M TRIS/KCL buffer (pH = 7.4), NADPH generating system (1.3 mM NADP, 3.3 mM glucose 6-phosphate, 1 U/ml glucose 6-phosphate dehydrogenase and 3.3 mM MgCl2). The appropriate concentrations of human liver microsomes (0.5 mg/ml for each reaction) or supersomes (50 pmol CYP/ml), various concentrations of a probe substrate in the absence or presence of neuroleptic (concentrations: 0.1, 0.5, 1, 5, 10 µM) were added, The final volume of the reaction mixture was 0.5 ml. The incubation time for supersomes was 30 min (for each reaction) and for liver microsomes: 30 min (diclofenac 4′-hydroxylation and bufuralol 1′-hydroxylation), 20 min (perazine N-demethylation and testosterone 6β-hydroxylation) or 50 min (caffeine 3-N-demethylation). After the reactions had been stopped, the concentrations of specific substrates and their metabolites formed in liver microsomes or supersomes were assessed by the HPLC method with UV detection (or fluorimetric detection for CYP2D6), as described previously.
# (§2) Kinetic parameters (Km, Vmax, Ki) describing the course of CYP-specific reactions in liver microsomes or supersomes were obtained using the Michaelis–Menten approach and a non-linear regression analysis (Program Sigma Plot 12.3 Enzyme Kinetics).
# [2] = biological target: T1, CYP1A2; assay: CYP1A2 inhibition, caffeine 3-N-demethylation in cDNA-expressed CYP1A2 (supersomes); type: in vitro ADME; settings: for type of inhibition: Lineweaver–Burk; for Ki: caffeine 3-N-demethylation
# Protocol: as §1, §2
# [3] = biological target: T2, CYP2C9 (Homo sapiens, UniProt P11712); assay: CYP2C9 inhibition, diclofenac 4′-hydroxylation in pooled human liver microsomes; type: in vitro ADME; settings: for type of inhibition: Lineweaver–Burk
# T2 construct: purchased Corning (Woburn, USA); host or cells: baculovirus-infected insect cells
# Protocol: as §1, §2
# [4] = biological target: T2, CYP2C9; assay: CYP2C9 inhibition, diclofenac 4′-hydroxylation in cDNA-expressed CYP2C9 (supersomes); type: in vitro ADME; settings: for type of inhibition: Lineweaver–Burk
# Protocol: as §1, §2
# [5] = biological target: T3, CYP2C19 (Homo sapiens, UniProt P33261); assay: CYP2C19 inhibition, perazine N-demethylation in cDNA-expressed CYP2C19 (supersomes); type: in vitro ADME; settings: for type of inhibition: Lineweaver–Burk; for Ki: perazine N-demethylation
# Protocol: as §1, §2
# [6] = biological target: T4, CYP2D6 (Homo sapiens, UniProt P10635); assay: CYP2D6 inhibition, bufuralol 1′-hydroxylation in cDNA-expressed CYP2D6 (supersomes); type: in vitro ADME; settings: for type of inhibition: Lineweaver–Burk; for Ki: bufuralol 1′-hydroxylation
# Protocol: as §1, §2
# [7] = biological target: T5, CYP3A4 (Homo sapiens, UniProt P08684); assay: CYP3A4 inhibition, testosterone 6β-hydroxylation in pooled human liver microsomes
# Protocol: as §1, §2
# [8] = biological target: T5, CYP3A4; assay: CYP3A4 inhibition, testosterone 6β-hydroxylation in cDNA-expressed CYP3A4 (supersomes)
# Protocol: as §1, §2
# [9] = patients; cited from earlier work
# [10] = lipophilicity; cited from earlier work
# [11] = biological target: T3, CYP2C19; assay: CYP2C19 inhibition, perazine N-demethylation in pooled human liver microsomes; type: in vitro ADME; design: a Human liver microsomes; tissue Corning (Woburn, USA); host or cells: pooled human liver microsomes; settings: for type of inhibition: Lineweaver–Burk; for Ki: perazine N-demethylation
# Protocol: as §1, §2
# [12] = biological target: T4, CYP2D6; assay: CYP2D6 inhibition, bufuralol 1′-hydroxylation in pooled human liver microsomes; type: in vitro ADME; design: a Human liver microsomes; tissue Corning (Woburn, USA); host or cells: pooled human liver microsomes; settings: for type of inhibition: Lineweaver–Burk; for Ki: bufuralol 1′-hydroxylation
# Protocol: as §1, §2
# T2 sequence (P11712 whole entry): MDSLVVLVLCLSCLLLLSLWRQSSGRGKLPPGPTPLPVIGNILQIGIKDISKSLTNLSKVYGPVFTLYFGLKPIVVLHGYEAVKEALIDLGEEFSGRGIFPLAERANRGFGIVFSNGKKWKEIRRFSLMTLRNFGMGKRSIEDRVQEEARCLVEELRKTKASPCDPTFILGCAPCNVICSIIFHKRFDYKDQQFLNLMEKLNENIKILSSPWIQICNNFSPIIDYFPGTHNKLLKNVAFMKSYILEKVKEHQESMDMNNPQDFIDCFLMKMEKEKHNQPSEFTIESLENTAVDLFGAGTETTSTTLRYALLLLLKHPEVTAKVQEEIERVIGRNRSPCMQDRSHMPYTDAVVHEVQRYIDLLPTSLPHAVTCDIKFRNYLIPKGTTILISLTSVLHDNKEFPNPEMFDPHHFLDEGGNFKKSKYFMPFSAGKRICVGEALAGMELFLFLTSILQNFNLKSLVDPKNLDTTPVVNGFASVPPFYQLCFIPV
# T5 sequence (P08684 whole entry): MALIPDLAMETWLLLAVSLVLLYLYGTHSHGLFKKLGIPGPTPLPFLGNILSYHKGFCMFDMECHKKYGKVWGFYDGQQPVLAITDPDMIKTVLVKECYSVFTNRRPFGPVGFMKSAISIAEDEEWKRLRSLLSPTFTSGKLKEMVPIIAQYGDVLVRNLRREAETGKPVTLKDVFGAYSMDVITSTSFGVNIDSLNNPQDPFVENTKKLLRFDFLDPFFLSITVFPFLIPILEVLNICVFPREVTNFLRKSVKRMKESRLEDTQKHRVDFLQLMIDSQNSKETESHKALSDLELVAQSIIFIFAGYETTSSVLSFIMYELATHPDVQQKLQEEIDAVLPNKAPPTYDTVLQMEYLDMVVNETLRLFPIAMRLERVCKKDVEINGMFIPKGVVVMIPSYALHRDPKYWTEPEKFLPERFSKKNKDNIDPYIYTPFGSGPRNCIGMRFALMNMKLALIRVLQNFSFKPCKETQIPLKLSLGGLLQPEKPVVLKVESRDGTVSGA
# T3 sequence (P33261 whole entry): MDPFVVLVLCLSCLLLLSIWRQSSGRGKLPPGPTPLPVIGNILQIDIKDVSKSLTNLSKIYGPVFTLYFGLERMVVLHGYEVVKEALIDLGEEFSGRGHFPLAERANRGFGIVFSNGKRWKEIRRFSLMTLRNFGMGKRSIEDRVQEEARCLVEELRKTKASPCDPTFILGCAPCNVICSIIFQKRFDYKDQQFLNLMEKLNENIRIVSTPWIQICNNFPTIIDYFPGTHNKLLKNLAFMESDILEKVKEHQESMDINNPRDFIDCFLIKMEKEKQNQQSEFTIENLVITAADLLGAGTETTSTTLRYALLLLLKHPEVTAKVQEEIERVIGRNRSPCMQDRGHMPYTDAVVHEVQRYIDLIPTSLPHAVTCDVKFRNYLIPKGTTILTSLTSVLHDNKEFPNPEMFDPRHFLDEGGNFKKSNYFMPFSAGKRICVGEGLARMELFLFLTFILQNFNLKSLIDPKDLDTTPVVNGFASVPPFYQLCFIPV
# T4 sequence (P10635 whole entry): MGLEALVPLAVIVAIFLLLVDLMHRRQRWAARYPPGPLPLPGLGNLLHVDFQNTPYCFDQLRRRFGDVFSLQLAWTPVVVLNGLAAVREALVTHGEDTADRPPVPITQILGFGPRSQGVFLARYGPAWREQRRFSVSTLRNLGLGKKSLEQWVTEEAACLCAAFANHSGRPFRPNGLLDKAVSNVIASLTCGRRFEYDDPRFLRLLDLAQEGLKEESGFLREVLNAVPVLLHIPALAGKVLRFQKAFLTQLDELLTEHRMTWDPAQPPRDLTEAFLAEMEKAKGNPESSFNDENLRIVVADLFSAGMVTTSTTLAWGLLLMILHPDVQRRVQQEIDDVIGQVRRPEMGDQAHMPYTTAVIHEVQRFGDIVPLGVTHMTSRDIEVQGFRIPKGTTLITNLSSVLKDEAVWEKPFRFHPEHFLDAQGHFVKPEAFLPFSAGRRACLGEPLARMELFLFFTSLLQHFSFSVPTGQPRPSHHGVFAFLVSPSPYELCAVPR
type of inhibition [1],Ki [1],type of inhibition [2],Ki [2],type of inhibition [5],Ki [5],type of inhibition [6],Ki [6],type of inhibition [7],"type of inhibition ([7]; human, 20 min, pH 7.4)",type of inhibition [8],"type of inhibition ([8]; human, 30 min, pH 7.4)",type of inhibition [11],Ki [11],type of inhibition [12],Ki [12],SMILES,therapeutic plasma concentration [9],log P [10],other results
Mixed,45 µM,Mixed,31 µM,Mixed,32 µM,Competitive,10 µM,noncompetitive,Noncompetitive,noncompetitive,Noncompetitive,Mixed,6.5 µM,Competitive,2.9 µM,"COc1cc(C(C)=O)ccc1OCCCN1CCC(c2noc3cc(F)ccc23)CC1 [Iloperidone, iloperidone]",up to 0.2 μM,4.43,"type of inhibition ([1]; listed as iloperidone): mixed; type of inhibition ([2]; listed as iloperidone): mixed; Ki at 30 min ([3]; human, pooled human liver microsomes, pH 7.4, probe diclofenac (4′-hydroxylation), CYP2C9, liver microsomes, diclofenac 4′-hydroxylation): > 10 µM; effect on the activity of CYP2C9 ([3]; liver microsomes, neuroleptic 0.1-10 µM): did not affect; Ki at 30 min ([4]; human, pH 7.4, probe diclofenac (4′-hydroxylation), CYP2C9, supersomes, diclofenac 4′-hydroxylation): > 10 µM; effect on the activity of CYP2C9 ([4]; supersomes, neuroleptic 0.1-10 µM): did not affect; type of inhibition ([5]; listed as iloperidone): mixed; type of inhibition ([6]; listed as iloperidone): competitive; type of inhibition ([11]; listed as iloperidone): mixed; type of inhibition ([12]; listed as iloperidone): competitive"
Mixed,12.6 µM,Mixed,15.5 µM,Mixed,18.4 µM,Competitive,85 µM,competitive,Competitive,competitive,Competitive,Mixed,18 µM,Competitive,37.5 µM,"O=C1[C@@H]2[C@H]3CC[C@H](C3)[C@@H]2C(=O)N1C[C@@H]1CCCC[C@H]1CN1CCN(c2nsc3ccccc23)CC1 [Lurasidone, lurasidone]",≤ 1.2 µM,5.6,"type of inhibition ([1]; listed as lurasidone): mixed; type of inhibition ([2]; listed as lurasidone): mixed; type of inhibition ([3]; CYP2C9, liver microsomes): Mixed; type of inhibition ([3]; CYP2C9, liver microsomes, listed as lurasidone): mixed; Ki ([3]; CYP2C9, liver microsomes, diclofenac 4′-hydroxylation): 18 µM; type of inhibition ([4]; CYP2C9, supersomes): Mixed; type of inhibition ([4]; CYP2C9, supersomes, listed as lurasidone): mixed; Ki ([4]; CYP2C9, supersomes, diclofenac 4′-hydroxylation): 3.5 µM; type of inhibition ([5]; listed as lurasidone): mixed; type of inhibition ([6]; listed as lurasidone): competitive; Ki [7]: 29.4 µM; Ki [8]: 9.1 µM; type of inhibition ([11]; listed as lurasidone): mixed; type of inhibition ([12]; listed as lurasidone): competitive"
